Results on 6 compounds are retold here after patent publication US20100152301A1, “Treatment of Viral Infections” (GOVERNMENT OF THE US, AS REPRESENTED BY THE SECRETARY, …, priority 2005, published 2010).

Test [1] addresses T1, HIV-1 integrase (Human immunodeficiency virus type 1 group M subtype B, UniProt P04585).
T1 construct: Expression and purification of the recombinant HIV-1 integrase in Escherichia coli; made in house; host or cells: Escherichia coli
Description: Integrase catalytic assay, 3′-processing (3′-P), 21 bp duplex substrate. The conditions noted are these: for IC50: In vitro IC50 21 bp substrate 3′-P; for inhibition at 333 µM: drug concentration of 333 μM. It is filed as biochemical. Here is the method:
(§1) Recombinant HIV integrase and oligonucleotide substrates. Expression and purification of the recombinant HIV-1 integrase in Escherichia coli were performed according to (Leh et al., 2000; Marchand et al., 2001) with addition of 10% glycerol to all buffers. The preparation of the Q148C/SSS-mutant integrase will be described elsewhere (Johnson et al., 2005). The oligonucleotide substrates, except those used for the disulfide crosslinking (FIG. 5A), were purchased from Integrated DNA Technologies, Inc. (Coraville, Iowa) and purified by polyacrylamide gel. The single-stranded oligonucleotides were 5′-end labeled with [γ^32P]-ATP (Perkin Elmer, Wellesley, M A) and T4 polynucleotide kinase (New England BioLabs, Ipswich, M A). Unincorporated nucleotide was removed using mini Quick Spin Oligo columns (Roche Diagnostics, Indianapolis, Ind.). Substrates were obtained after annealing with complementary non-labeled oligonucleotides. The thiol-modified substrate (FIG. 5A) for disulfide crosslinking assay was synthesized as essentially described by W. Santos and G. Verdine (Department of Chemistry and Chemical Biology, Harvard University, Cambridge, Mass.) (They and Verdine, 2002).
(§2) Integrase catalytic assays. Reactions were performed in 10 μl with 300 nM of recombinant IN, 20 nM of the 5′-end [^32P]-labeled oligonucleotide substrates and inhibitors at the indicated concentrations. 10% DMSO was included in controls. Reactions were incubated for 40 min at 37° C. in a buffer containing a final concentration of 25 mM MOPS, pH 7.2, 25 mM NaCl, 14.3 mM β-mercaptoethanol and 7.5 mM of divalent cations (MgCl2 or MnCl2 as indicated). Reactions were stopped by addition of 20 μl loading dye (10 mM EDTA, 98% deionized formamide, 0.025% xylene cyanol and 0.025% bromophenol blue). Reactions were heated at 95° C. for 1 min before electrophoresis in 20% polyacrylamide-7 M urea gels. Gels were dried and reaction products were visualized and quantitated with a Molecular Dynamics PhosphorImager (Sunnyvale, Calif.). Densitometric analyses were performed using ImageQuant from the Molecular Dynamics software. The concentrations at which enzyme activity was reduced by 50% (IC50), was determined using “Prism” software (GraphPad Software, San Diego, Calif.) for nonlinear regression to fit dose-response data to logistic curve models.

Test [2] concerns the target T1, HIV-1 integrase. Description: Integrase catalytic assay, strand transfer (ST), 21 bp duplex substrate. It counts as biochemical. To be noted: for inhibition activity, ST, 21 bp substrate: drug concentration of 333 μM; for inhibition at 333 µM: read-out: inhibition activity, ST, 21 bp substrate. The method, then: as §1, §2
The target of test [3] is T1, HIV-1 integrase. The test can be described thus: Strand transfer assay with preprocessed (19/21) DNA substrate. To be noted: for IC50: In vitro IC50 Preprocessed substrate; for inhibition at 333 µM: drug concentration of 333 μM. It counts as biochemical. Here is the method: as §1, §2
The target of test [4] is T1, HIV-1 integrase. The test can be described thus: Disintegration assay with Y-oligomer substrate. It counts as biochemical. To be noted: for IC50: In vitro IC50 Disintegration; for inhibition activity, disintegration: drug concentration of 333 μM; for inhibition at 333 µM: read-out: inhibition activity, disintegration. Here is the method: as §1, §2
Test [5] deals with T2, Q148C/SSS-mutant integrase (Human immunodeficiency virus type 1 group M subtype B, UniProt P04585, C1203S/C1212S/C1427S/Q1295C).
T2 construct: 10 μM recombinant Q148C/SSS-mutant integrase was incubated with 10 μM DNA substrate; made in house
The test can be described thus: biochemical. It is filed as binding, HIV-1. To be noted: drug 1 mM; Mg2+ or Mn2+ (FIG. 5B).
Description: Briefly, 10 μM recombinant Q148C/SSS-mutant integrase was incubated with 10 μM DNA substrate (FIG. 5A) containing tethered thiols in the presence of 20 mM Tris, pH 7.4, 10% glycerol and 7.5 mM of divalent cations (MgCl2 or MnCl2 as indicated) for 20 min at 37° C. Reactions were stopped by the addition of 20 mM methylmethanethiosulfonate (capping reagent). Non-reducing gel loading buffer (100 mM Tris-HCl, pH 6.8, 4% SDS, 0.2% bromophenol blue, 20% glycerol) was added and samples were heated at 95° C. before loading onto 16% tricine gels (Invitrogen, Carlsbad, Calif.). Gels were stained with Microwave Blue according to manufacturer's recommendations (Protiga, Frederick, Md.).
DNA (20 nM) containing a [5′-^32P]-label on one strand and a thiol-modified cytosine on the other strand was added and reactions were capped with methylmethanethiosulfonate at 1 minute. Following capping, non-reducing gel loading buffer (100 mM Tris-HCl, pH 6.8, 4% SDS, 0.2% bromophenol blue, 20% glycerol) was added and samples were directly loaded on 16% tricine gels (Invitrogen, Carlsbad, Calif.). Gels were dried and reaction products were quantitated using the same way as described above.

[6] abbreviates: read-out: inhibition activity, 3′-P, 21 bp substrate, Mg2+.
The mark [7] stands for this setting: read-out: inhibition activity, 3′-P, 21 bp substrate, Mn2+.
The mark [8] stands for this setting: In vitro IC50 21 bp substrate ST, Mg2+.
Setting [9] is: In vitro IC50 21 bp substrate ST, Mn2+.
[10] abbreviates: Mn2+ as cofactor, U5 LTR DNA substrate.
The mark [11] stands for this setting: read-out: inhibition activity, preprocessed substrate, Mg2+.
The mark [12] stands for this setting: read-out: inhibition activity, preprocessed substrate, Mn2+.

By IC50 is commonly meant the concentration that inhibits the measured activity by half. Read a low IC50 as higher potency.

For the compound `CC(C)c1cccc(=O)c(O)c1` [NSC 18804, β-thujaplicin], the IC50 against HIV-1 integrase [1] (Mg2+), against HIV-1 integrase [1] (Mn2+), on HIV-1 integrase [2] (setting [8]), on HIV-1 integrase [2] (setting [9]), against HIV-1 integrase [3] (Mg2+) and against HIV-1 integrase [3] (Mn2+) was > 333 µM each time. Also, the IC50 against HIV-1 integrase [4] (Mg2+) and at HIV-1 integrase [4] (Mn2+) was > 333 µM each time. Also, the inhibition at 333 µM at HIV-1 integrase [1] (setting [6]) was 20 to 40%; at HIV-1 integrase [1] (setting [7]), 20 to 40%; at HIV-1 integrase [2], 5 to 20%; at HIV-1 integrase [3] (setting [11]) it was 5 to 20%; at HIV-1 integrase [3] (setting [12]), 5 to 20%; on HIV-1 integrase [4], < 5%. Further, on HIV-1 integrase [2] (setting [10]), the “potency against HIV-1 integrase relative to the minimal tropolone core” value is on record as “failed to increase potency”. Besides, the “inhibition activity, ST, 21 bp substrate” value against HIV-1 integrase [2] (Mn2+) was 2 (5% < inhibition activity < 20%). Further, the “inhibition activity, disintegration” value at HIV-1 integrase [4] (Mn2+) is 1 (inhibition activity ≦ 5%). Moreover, in test [5], the “inhibition of integrase-DNA disulfide-crosslinking (in words)” value is reported as “lack of inhibition”.
Turning to `CC(C)c1ccccc(=O)c1O` [NSC 18805, α-thujaplicin], the IC50 on HIV-1 integrase [1] (Mg2+), against HIV-1 integrase [1] (Mn2+), against HIV-1 integrase [2] (setting [8]), against HIV-1 integrase [2] (setting [9]), against HIV-1 integrase [3] (Mg2+) and on HIV-1 integrase [3] (Mn2+) was > 333 µM each time. The IC50 against HIV-1 integrase [4] (Mg2+) and against HIV-1 integrase [4] (Mn2+) was > 333 µM each time. Further, the inhibition at 333 µM at HIV-1 integrase [1] (setting [6]) was 5 to 20%; at HIV-1 integrase [1] (setting [7]), 5 to 20%; on HIV-1 integrase [2] it was < 5%; on HIV-1 integrase [3] (setting [11]), < 5%; at HIV-1 integrase [3] (setting [12]), < 5%; on HIV-1 integrase [4] it was < 5%. Further, the “potency against HIV-1 integrase relative to the minimal tropolone core” value on HIV-1 integrase [2] (setting [10]) was “failed to increase potency”. For the same compound, on HIV-1 integrase [2] (Mn2+), the “inhibition activity, ST, 21 bp substrate” value is listed as 1 (inhibition activity ≦ 5%). In addition, the “inhibition activity, disintegration” value against HIV-1 integrase [4] (Mn2+) is listed as 1 (inhibition activity ≦ 5%).
Turning to `CC(C)c1ccc(O)c(=O)cc1` [NSC 43338, γ-thujaplicin], the IC50 against HIV-1 integrase [1] (Mg2+), at HIV-1 integrase [1] (Mn2+), against HIV-1 integrase [2] (setting [8]), against HIV-1 integrase [2] (setting [9]), on HIV-1 integrase [3] (Mg2+) and at HIV-1 integrase [3] (Mn2+) was > 333 µM in each case. Further, the half-maximal inhibitory concentration (IC50) at HIV-1 integrase [4] (Mg2+) and against HIV-1 integrase [4] (Mn2+) was > 333 µM each time. The inhibition at 333 µM on HIV-1 integrase [1] (setting [6]), at HIV-1 integrase [1] (setting [7]), on HIV-1 integrase [2], at HIV-1 integrase [3] (setting [11]), on HIV-1 integrase [3] (setting [12]) and on HIV-1 integrase [4] was < 5% throughout. Moreover, the “potency against HIV-1 integrase relative to the minimal tropolone core” value at HIV-1 integrase [2] (setting [10]) was “failed to increase potency”. In addition, the “inhibition activity, ST, 21 bp substrate” value against HIV-1 integrase [2] (Mn2+) is 1 (inhibition activity ≦ 5%). Besides, at HIV-1 integrase [4] (Mn2+), the “inhibition activity, disintegration” value is on record as 1 (inhibition activity ≦ 5%).
With `CC(C)=CCc1ccc(=O)c(O)cc1C(C)C` [NSC 43339, nootkatin], the IC50 on HIV-1 integrase [1] (Mg2+), against HIV-1 integrase [1] (Mn2+), on HIV-1 integrase [2] (setting [8]), against HIV-1 integrase [2] (setting [9]), against HIV-1 integrase [3] (Mg2+) and at HIV-1 integrase [3] (Mn2+) was > 333 µM in each case. Further, the IC50 against HIV-1 integrase [4] (Mg2+) and against HIV-1 integrase [4] (Mn2+) was > 333 µM each time. In addition, the inhibition at 333 µM on HIV-1 integrase [1] (setting [6]) is 5 to 20%; on HIV-1 integrase [1] (setting [7]) it was 5 to 20%; on HIV-1 integrase [2], 20 to 40%; on HIV-1 integrase [3] (setting [11]), 5 to 20%; on HIV-1 integrase [3] (setting [12]) it was 20 to 40%; at HIV-1 integrase [4], < 5%. Besides, the “potency against HIV-1 integrase relative to the minimal tropolone core” value at HIV-1 integrase [2] (setting [10]) is “failed to increase potency”. Moreover, the “inhibition activity, ST, 21 bp substrate” value on HIV-1 integrase [2] (Mn2+) is on record as 3 (20% < inhibition activity < 40% at drug concentration of 333 μM). The “inhibition activity, disintegration” value against HIV-1 integrase [4] (Mn2+) is 1 (inhibition activity ≦ 5%).
With `O=c1cccccc1O` [NSC 89303, tropolone], the IC50 was > 333 µM against HIV-1 integrase [1] (Mg2+); > 333 µM against HIV-1 integrase [1] (Mn2+); > 333 µM on HIV-1 integrase [2] (IC50, inhibition of HIV-1 integrase (first screen), Mn2+ as cofactor, U5 LTR DNA substrate, 3′-P or ST not specified); > 333 µM against HIV-1 integrase [2] (setting [8]); > 333 µM on HIV-1 integrase [2] (setting [9]); > 333 µM against HIV-1 integrase [3] (Mg2+). Also, the IC50 on HIV-1 integrase [3] (Mn2+), against HIV-1 integrase [4] (Mg2+) and against HIV-1 integrase [4] (Mn2+) was > 333 µM throughout. For the same compound, the inhibition at 333 µM at HIV-1 integrase [1] (setting [6]) is < 5%; on HIV-1 integrase [1] (setting [7]) it was 5 to 20%; on HIV-1 integrase [2], 20 to 40%; at HIV-1 integrase [3] (setting [11]), 5 to 20%; on HIV-1 integrase [3] (setting [12]) it was 5 to 20%; on HIV-1 integrase [4], < 5%. Moreover, at HIV-1 integrase [2] (Mn2+), the “inhibition activity, ST, 21 bp substrate” value is given as 3 (20% < inhibition activity < 40% at drug concentration of 333 μM). The “inhibition activity, disintegration” value against HIV-1 integrase [4] (Mn2+) is 1 (inhibition activity ≦ 5%).
For `C=C(C)C1CCc2c(c(C)cc(O)c(=O)c2O)C1` (stereo not drawn) [NSC 310618, manicol], the half-maximal inhibitory concentration (IC50) at HIV-1 integrase [1] (Mg2+) was 182 ± 42.5 µM; at HIV-1 integrase [1] (Mn2+) it was 20.2 µM; at HIV-1 integrase [2] (setting [8]), 71.1 ± 3.8 µM; at HIV-1 integrase [2] (setting [9]) it was 11.7 ± 5.2 µM; against HIV-1 integrase [3] (Mg2+) it was > 333 µM; against HIV-1 integrase [3] (Mn2+), 25.8 µM. Further, the IC50 against HIV-1 integrase [4] (Mg2+) is > 333 µM; against HIV-1 integrase [4] (Mn2+), 98.3 µM. Besides, the inhibition at 333 µM at HIV-1 integrase [3] (setting [11]) lay in the range of 20 to 40%; on HIV-1 integrase [4] it was 5 to 20%.
